The first data set has as its target T1, KCC2 (Homo sapiens, UniProt Q9H2X9).
T1 sequence (Q9H2X9 1-1139): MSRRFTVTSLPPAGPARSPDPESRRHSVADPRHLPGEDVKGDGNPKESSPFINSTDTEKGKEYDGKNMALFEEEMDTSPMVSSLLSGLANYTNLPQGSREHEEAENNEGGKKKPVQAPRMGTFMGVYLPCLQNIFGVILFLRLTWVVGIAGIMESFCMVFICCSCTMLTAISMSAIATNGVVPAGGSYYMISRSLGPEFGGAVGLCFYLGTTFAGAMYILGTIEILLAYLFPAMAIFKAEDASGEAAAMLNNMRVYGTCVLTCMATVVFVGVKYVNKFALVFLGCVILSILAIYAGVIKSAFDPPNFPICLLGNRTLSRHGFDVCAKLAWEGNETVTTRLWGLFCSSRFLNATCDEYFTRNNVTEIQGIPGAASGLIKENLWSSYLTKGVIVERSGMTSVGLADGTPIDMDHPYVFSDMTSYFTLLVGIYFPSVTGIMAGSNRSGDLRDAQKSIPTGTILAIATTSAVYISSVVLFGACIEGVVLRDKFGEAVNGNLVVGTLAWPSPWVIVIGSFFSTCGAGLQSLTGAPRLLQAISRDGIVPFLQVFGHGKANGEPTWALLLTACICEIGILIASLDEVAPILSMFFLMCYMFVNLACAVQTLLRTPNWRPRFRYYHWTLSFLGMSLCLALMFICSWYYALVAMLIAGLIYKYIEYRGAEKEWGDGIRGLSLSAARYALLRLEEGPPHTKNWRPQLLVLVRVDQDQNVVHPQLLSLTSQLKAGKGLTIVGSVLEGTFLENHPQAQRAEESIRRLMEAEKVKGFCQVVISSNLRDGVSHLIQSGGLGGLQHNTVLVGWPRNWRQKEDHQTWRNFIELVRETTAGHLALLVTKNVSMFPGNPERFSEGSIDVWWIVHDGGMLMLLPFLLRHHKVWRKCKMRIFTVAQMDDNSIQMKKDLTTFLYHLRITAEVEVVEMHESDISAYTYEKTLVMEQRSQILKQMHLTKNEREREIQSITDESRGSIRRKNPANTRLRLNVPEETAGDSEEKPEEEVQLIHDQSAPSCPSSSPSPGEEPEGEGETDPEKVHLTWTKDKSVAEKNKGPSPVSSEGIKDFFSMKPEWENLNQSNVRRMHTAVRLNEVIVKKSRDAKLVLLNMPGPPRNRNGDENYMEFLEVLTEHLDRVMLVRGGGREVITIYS
Description: inhibitory activity measured in vitro on KCC2. The data set is classed as biochemical. To be noted: IC50, in vitro on KCC2.
`CC(=O)N1CCCC1(CC1CCCCC1)C(=O)OCc1ccccc1` (stereo not shown) [Compound 24]: the IC50 (usually the point on the concentration scale where inhibition reaches its midpoint) amounted to 4 µM.

Staying with this data set, now noted: in vitro on KCC2; read-out: IC50.
In the case of `CC(=O)N1CCCC1(Cc1ccccc1)C(=O)OCc1ccncc1` (stereo not shown) [Compound 48], the IC50 is over 100 µM.

On to `CC(=O)N1CCCC1(Cc1ccccc1)C(=O)OCc1ccc(C(F)(F)F)cc1` (stereo not shown) [Compound 53], for which the IC50 turned out to be 5 µM. Still for that read-out and setting: in the case of `CC(=O)N1CCCC1(Cc1ccccc1)C(=O)OCc1ccc(S(C)(=O)=O)cc1` (stereo not shown) [Compound 54] it was over 100 µM.

With `CC(=O)N1CCCC1(Cc1ccccc1)C(=O)NCc1ccccc1` (stereo not shown) [Compound 41], the IC50 turned out to be 100 µM. On the same count and under the same terms, in the case of `CC(=O)N1CCCC1(Cc1ccc(F)c(C(F)(F)F)c1)C(=O)OCc1ccccc1` (stereo not shown) [Compound 38] it was 0.06 µM.

In the case of `CC(=O)N1CCCC1(Cc1ccccc1)C(=O)N(C)Cc1ccccc1` (stereo not shown) [Compound 42], the IC50 was found to be 32 µM. The same measure, in the same setting: in the case of `CC(=O)N1CCCC1(CCc1ccccc1)C(=O)OCc1ccccc1` (stereo not shown) [Compound 22] it was 8 µM. Still for that read-out and setting: in the case of `CC(=O)N1CCCC1(Cc1ccc(F)cc1C(F)(F)F)C(=O)OCc1ccccc1` (stereo not shown) [Compound 40] it was 4 µM; in that of `CC(=O)N1CCCC1(Cc1ccsc1)C(=O)OCc1ccccc1` (stereo not shown) [Compound 26], 0.79 µM; in that of `CC(=O)N1CCCC1(Cc1ccccc1)C(=O)OCc1cccc(Cl)c1` (stereo not shown) [Compound 50], 2.5 µM.

Take `COc1ccc(CC2(C(=O)OCc3ccccc3)CCCN2C(C)=O)cc1` (stereo not shown) [Compound 28]: the IC50 was 0.4 µM. As to `O=C(c1ccccc1)N1CCCC1(Cc1ccccc1)C(=O)OCc1ccccc1` (stereo not shown) [Compound 62], the IC50 stood at 4 µM. For `CC(=O)N1CCCC1(Cc1ccccc1)C(=O)CCc1ccccc1` (stereo not shown) [Compound 63], the IC50 turned out to be 0.3 µM.

Regarding `CC(=O)N1CCCC1(Cc1cccc(C#N)c1)C(=O)OCc1ccccc1` (stereo not shown) [Compound 34], the IC50 came out at 0.32 µM. On the same count and under the same terms, in the case of `CC(=O)N1CCCC1(Cc1ccncc1)C(=O)OCc1ccccc1` (stereo not shown) [Compound 25] it was 2 µM; in that of `CC(=O)N1c2ccccc2CC1(Cc1ccccc1)C(=O)OCc1ccccc1` (stereo not shown) [Compound 65], 0.2 µM; in that of `COC(=O)N1CCCC1(Cc1ccccc1)C(=O)OCc1ccccc1` (stereo not shown) [Compound 58], 0.4 µM. On the same count and under the same terms, in the case of `CC(=O)N1CCCC1(Cc1ccccc1)C(=O)OCc1ccc(Cl)cc1` (stereo not shown) [Compound 51] it was 1.3 µM.

On to `CCN1CCCC1(Cc1ccccc1)C(=O)OCc1ccccc1` (stereo not shown) [Compound 56], for which the IC50 is over 100 µM. Still for that read-out and setting: in the case of `CC(=O)N1CCCC1(Cc1ccc(Cl)cc1)C(=O)OCc1ccccc1` (stereo not shown) [Compound 31] it was 0.32 µM. The same measure, in the same setting: in the case of `O=C(C1CC1)N1CCCC1(Cc1ccccc1)C(=O)OCc1ccccc1` (stereo not shown) [Compound 61] it was 0.32 µM; in that of `CC(=O)N1CCCC1(Cc1ccccc1)C(=O)OCCc1ccccc1` (stereo not shown) [Compound 46], 10 µM; in that of `CS(=O)(=O)N1CCCC1(Cc1ccccc1)C(=O)OCc1ccccc1` (stereo not shown) [Compound 57], 1.6 µM. Same read-out and setting: in the case of `COc1ccc(CC2(C(=O)OCc3ccccc3)CCCN2C(C)=O)cc1C(F)(F)F` (stereo not shown) [Compound 39] it was 0.05 µM.

For the molecule `CC(=O)N1CCCC1(Cc1ccccc1)C(=O)OCC1CCCCC1` (stereo not shown) [Compound 47], the IC50 amounted to 63 µM. On to `O=C1CCCC2CCC(Cc3ccccc3)(C(=O)OCc3ccccc3)N12` (stereo not shown) [Compound 69], for which the IC50 worked out at 1 µM. On the same count and under the same terms, in the case of `CC(=O)N1CCCC1(Cc1ccc(F)cc1)C(=O)CCc1ccc(F)cc1` (stereo not shown) [Compound 64] it was 0.2 µM. Still for that read-out and setting: in the case of `CC(=O)N1CCCC1(Cc1cccc(S(C)(=O)=O)c1)C(=O)OCc1ccccc1` (stereo not shown) [Compound 36] it was 0.25 µM; in that of `CC(=O)N1CCCC1(Cc1ccccc1)C1=N[C@H](c2ccccc2)CO1` (stereo partly shown) [Compound 67], 1.3 µM; in that of `CC(=O)N1CCCC1(Cc1ccccc1)C(=O)OCc1ccc(C)cc1` (stereo not shown) [Compound 52], 0.79 µM. Regarding `CC(=O)N1CCCC1(Cc1ccc(C)cc1)C(=O)OCc1ccccc1` (stereo not shown) [Compound 27], the IC50 came out at 0.79 µM. On the same count and under the same terms, in the case of `CC(=O)N1CCCC1(Cc1ccccc1)C(=O)OCc1ccccc1Cl` (stereo not shown) [Compound 49] it was 6 µM; in that of `CCNC(=O)N1CCCC1(Cc1ccccc1)C(=O)OCc1ccccc1` (stereo not shown) [Compound 59], 2 µM. Same read-out and setting: in the case of `CC(=O)N1CCCC1(Cc1ccccc1)C(=O)OCc1ccccc1` (stereo not shown) [Compound 66] it was 20 µM. Same read-out and setting: in the case of `CC(=O)N1CCCC1(Cc1ccc(S(C)(=O)=O)cc1)C(=O)OCc1ccccc1` (stereo not shown) [Compound 32] it was 1 µM; in that of `CC(=O)N1CCCC1(Cc1cccc(C(F)(F)F)c1)C(=O)OCc1ccccc1` (stereo not shown) [Compound 37], 0.08 µM.

In the case of `CC(=O)N1CCCC1(Cc1ccc(F)cc1)C(=O)OCc1ccccc1` (stereo not shown) [Compound 30], the IC50 was determined as 0.2 µM.

Consider `CC(=O)N1CCCC1(Cc1ccccc1)c1nc(-c2ccccc2)co1` (stereo not shown) [Compound 68], for which the IC50 is 12.6 µM. Still for that read-out and setting: in the case of `CC(=O)N1CCCC1(Cc1ccccc1)C(=O)OCc1ccccc1` (stereo not shown) [Compound 21] it was 0.79 µM. Consider `CC(=O)N1CCCC1(Cc1ccccc1)C(=O)O` (stereo not shown) [Compound 43], for which the IC50 was over 100 µM.

Consider `O=C(OCc1ccccc1)C1(Cc2ccccc2)CCCN1` (stereo not shown) [Compound 55], for which the IC50 was over 100 µM. Take `CCC1(C(=O)OCc2ccccc2)CCCN1C(C)=O` (stereo not shown) [Compound 23]: the IC50 turned out to be 2.3 µM.

As for `CC(=O)N1CCCC1(Cc1ccccc1)C(=O)OC(C)c1ccccc1` (stereo not shown) [Compound 45], the IC50 came out at 4 µM. As for `CC(=O)N1CCCC1(Cc1ccc(C#N)cc1)C(=O)OCc1ccccc1` (stereo not shown) [Compound 33], the IC50 was 0.16 µM. Same read-out and setting: in the case of `CC(=O)N1CCCC1(Cc1ccc(C(F)(F)F)cc1)C(=O)OCc1ccccc1` (stereo not shown) [Compound 29] it was 0.63 µM; in that of `CC(=O)N1CCCC1(Cc1ccccc1C#N)C(=O)OCc1ccccc1` (stereo not shown) [Compound 35], 5 µM; in that of `CCC(=O)N1CCCC1(Cc1ccccc1)C(=O)OCc1ccccc1` (stereo not shown) [Compound 60], 1.2 µM.

Consider `COC(=O)C1(Cc2ccccc2)CCCN1C(C)=O` (stereo not shown) [Compound 44], for which the IC50 is over 100 µM.

The next data set has as its system elderly mice. Description: novel object recognition (NOR) test in elderly mice. The data set is classed as in vivo. The conditions noted are these: 1 mg/kg i.p., versus vehicle. From the text:
FIG. 3 illustrates the evaluation of the efficacy of compound 32 (KCC2 inhibitor) to restore impaired memory in elderly mice. a) Quantification of the discrimination index of the NOR test in young (n=13) and elderly (n=10) mice (two tailed t-test, ** P<0.01). b) Quantification of the discrimination index of the NOR test in mice treated with vehicle (young, n=12, elderly, n=9) or compound 32 (young, n=10, elderly, n=6) (two-way ANOVA, Tukey post hoc test, ** P<0.01, ** P<0.001).
To evaluate memory capacity in the elderly mice, the novel object recognition (NOR) test was conducted. This test evaluates the long-term object recognition memory by measuring the capacity of the mice to recognize a novel object compared to familiar objects. […] Subsequently, to test the ability of the non-selective KCC2 inhibitor, Compound 32, to restore poor memory, the NOR test was conducted in the presence of the drug. The mice were treated with compound 32 (1 mg/kg i.p.) or with the vehicle.
`CC(=O)N1CCCC1(Cc1ccc(S(C)(=O)=O)cc1)C(=O)OCc1ccccc1` (stereo not shown) [Compound 32]: the “object recognition memory (discrimination index of the NOR test)” value is reported as “significantly restored”.

A further data set relates to mice C57BL/6J aged >24 months. Description: open field test after diazepam in elderly and young mice. The data set is classed as in vivo. To be noted: elderly mice (>24 months), diazepam 2 mg/kg, compared to elderly mice treated with vehicle or young mice treated with diazepam. From the text:
FIG. 2 illustrates the evaluation of the effect of benzodiazepines in elderly mice which is indicative of a potentiated GABAergic transmission. a) Quantification of the immobility time during the open field test of mice treated with vehicle (young, n=7, elderly, n=6) or diazepam (young, n=7, elderly, n=7) (two-way ANOVA, Tukey post hoc test, *** P<0.001). b) Quantification of the distance travelled during the open field test by mice treated with vehicle (young, n=7, elderly, n=6) or diazepam (young, n=7, elderly, n=7) (two-way ANOVA, Tukey post hoc test, ** P<0.01, *** P<0.001).
In fact, benzodiazepines are positive allosteric modulators of GABAAR. Benzodiazepines are commonly used as anxiolytic drugs, but can produce anxiogenic or highly sedative effects depending on the polarity of GABAergic transmission. To test the reaction of elderly mice to benzodiazepines, mice C57BL/6J aged >24 months and 2-month old controls C57BL/6J were treated with diazepam (2 mg/kg in saline solution) or vehicle (2% DMSO in saline solution). The open field test was then carried out to evaluate locomotor activity and the level of anxiety of the mice tested. […] This is indicative of an over-sedation reaction of the diazepam in the elderly mice, which may reflect the presence of hyper-inhibitory GABAergic transmission. This evidence is in accordance with the up-regulation of KCC2 (FIG. 1b).
With `CN1C(=O)CN=C(c2ccccc2)c2cc(Cl)ccc21` [diazepam], the “distance travelled during the open field test” value is on record as “significantly lower” and the “immobility time during the open field test” value is “significantly higher”.
